For 8 compounds, TGI results are on record in PubChem BioAssay (NCI).

Holding throughout (experiment): inhibition of tumour cell growth, NCI panel, 48 h
The test system of experiment [1] is 786-0 renal.
For experiment [2], the system named is BT-549 breast.
Experiment [3] relates to HCT-116 colon.
Experiment [4] has as its system HCT-15 colon.
Experiment [5] deals with HOP-62 NSCLC.
Experiment [6] has as its system K-562 leukemia.
The subject of experiment [7] is MALME-3M melanoma.
The subject of experiment [8] is MCF7 breast.
Experiment [9] has as its system MDA-MB-435.
Experiment [10] has as its system MOLT-4 leukemia.
Experiment [11] relates to NCI-H226 lung.
In experiment [12] the test system is NCI/ADR-RES ovarian.
Experiment [13] deals with OVCAR-4 ovarian.
The subject of experiment [14] is SF-295 CNS.
The subject of experiment [15] is SW-620 colon.
Experiment [16] concerns UACC-257 melanoma.
In experiment [17] the test system is UO-31 renal.
Experiment [18] relates to COLO 205 colon.
Experiment [19] has as its system SK-MEL-2 melanoma.
Experiment [20] deals with PC-3 prostate.

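How tested: cells in 96-well plates exposed to compound for 48 hours at five concentrations. TGI is the concentration that stops growth completely.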

Turning to `O=[N+]([O-])c1ccc(-c2ccc([C@H]3CC(c4cc(F)c(Cl)cc4Cl)=NN3)o2)cc1`, the TGI is more than 100 µM in experiment [1]; 90.9 µM in experiment [2]; more than 100 µM in experiment [3]; more than 100 µM in experiment [4]; more than 100 µM in experiment [5]; more than 100 µM in experiment [6]. The TGI in [7] is more than 100 µM; in [8], more than 100 µM; in [9], more than 100 µM; in experiment [10] it was 41 µM; in [11], 58.9 µM; in experiment [12], 90.2 µM. Also, the TGI in experiment [13], in experiment [14], in experiment [15], in experiment [16] and in experiment [17] was more than 100 µM in each case.
For `CC(=O)Nc1ccc2c3c(cc(O)c2c1)N(C(=O)CCCCCCC(=O)Nc1ccc2c4c(cc(O)c2c1)N(C(=O)OC(C)(C)C)CC4CCl)CC3CCl` (stereo unspecified), the TGI in experiment [1] was 5.55 µM; in [2], 0.979 µM; in experiment [18] it was 0.284 µM; in experiment [3], 11.9 µM; in experiment [4], more than 38.5 µM; in experiment [5], 3.45 µM. Besides, the TGI in [6] is more than 100 µM; in experiment [8], 0.739 µM; in experiment [9], 0.305 µM; in experiment [10], more than 100 µM; in experiment [11], 0.463 µM; in experiment [12], more than 72 µM. Moreover, the TGI was 3.98 µM in [13]; 0.957 µM in experiment [14]; 0.0593 µM in [19]; more than 36.3 µM in experiment [15]; 0.439 µM in experiment [16]; 3.35 µM in experiment [17].
For the compound `N#Cc1nc(CCC(C(=O)O)N2C(=O)c3ccccc3C2=O)oc1N` (stereo unspecified), the TGI in [1], in experiment [18], in [4], in [5], in experiment [6] and in [7] was more than 100 µM in each case. In addition, the TGI in experiment [8], in experiment [9], in [10], in experiment [11], in experiment [12] and in experiment [13] was more than 100 µM each time. In addition, the TGI in [20], in experiment [14], in experiment [19], in [15], in [16] and in experiment [17] was more than 100 µM throughout.
As for `CCCCCCCC(=O)N1C2CC3CCC2(CS1(=O)=O)C3(C)C` (stereo unspecified), the TGI in experiment [1] is 31.7 µM; in [2], 71.6 µM; in experiment [18], 41.2 µM; in experiment [3], more than 100 µM; in [4], 26.7 µM; in experiment [5] it was 44.3 µM. In addition, the TGI in experiment [7] is 34 µM; in experiment [8], 35.8 µM; in [9] it was more than 100 µM; in experiment [10], 35.1 µM; in experiment [13], more than 100 µM; in experiment [20], 69.1 µM. In addition, the TGI in experiment [14] worked out at 50.8 µM; in experiment [15], 61.6 µM; in [16], 68.6 µM; in experiment [17] it was 52.4 µM.
Regarding `Cc1c(S(=O)(=O)/N=C(\NO)Nc2ccc(Cl)cc2)sc2ccc(Cl)cc12`, the TGI is 32.3 µM in [1]; 31.7 µM in experiment [2]; 30.9 µM in experiment [18]; 27.4 µM in experiment [3]; 30.6 µM in experiment [4]; 36.7 µM in experiment [5]. For the same compound, the TGI in experiment [6] is more than 100 µM; in experiment [7], 33.8 µM; in [9] it was 33.7 µM; in experiment [10], more than 100 µM; in experiment [11] it was 38.1 µM; in [12], 37.9 µM. Besides, the TGI in experiment [13] was 38.3 µM; in experiment [20], 31.1 µM; in experiment [14], 41 µM; in experiment [19], 34.4 µM; in [15] it was 63.1 µM; in [16], 33.3 µM. Also, the TGI in experiment [17] worked out at 52.5 µM.
With `CC(=O)OCC1OC(Sc2nc(-c3ccccc3)c(C#N)c(=O)n2C2OC(COC(C)=O)C(OC(C)=O)C(OC(C)=O)C2OC(C)=O)C(OC(C)=O)C(OC(C)=O)C1OC(C)=O` (stereo unspecified), the TGI in experiment [1], in experiment [2], in experiment [18], in experiment [3], in experiment [4] and in [5] was more than 100 µM throughout. Also, the TGI in [6], in [8], in experiment [9], in experiment [10], in experiment [11] and in [12] was more than 100 µM each time. Also, the TGI in [20], in experiment [14], in experiment [19], in experiment [15], in experiment [16] and in [17] was more than 100 µM each time.
For the compound `C(#C[C@@]12CCC[C@@H]1NCO2)c1ccc2c(c1)OCO2`, the TGI in experiment [1] was more than 100 µM; in experiment [18] it was 31.5 µM; in [4] it was more than 100 µM; in [5] it was more than 100 µM; in [6], 60.2 µM; in experiment [7], more than 100 µM. Also, the TGI in experiment [8] is more than 100 µM; in [9], more than 100 µM; in experiment [10], 67.7 µM; in [11], more than 100 µM; in experiment [12], more than 100 µM; in experiment [13] it was more than 100 µM. Further, the TGI in experiment [20], in [14], in experiment [19], in [15], in [16] and in experiment [17] was more than 100 µM each time.
For `CCOC(=O)c1nc2ccccc2nc1Oc1ccc(F)cc1`, the TGI in experiment [1], in experiment [2], in [18], in experiment [3], in experiment [4] and in [5] was more than 100 µM throughout. Moreover, the TGI in experiment [6], in experiment [8], in experiment [9], in [11], in experiment [12] and in experiment [20] was more than 100 µM each time. The TGI in [14], in experiment [19], in experiment [15], in experiment [16] and in experiment [17] was more than 100 µM each time.
